What was measured:
[1] = test system: B. subtilis 168; assay: fitness (endpoint OD595 vs no drug) (fraction); higher = more growth
How it was run: (§1)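 Bacterial fitness was scored as optical density at the stationary-phase transition relative to the robust mean of no-drug control wells. Scores are capped at 1. The growth data were OD595 readings every 30 min for 14 h at 37 °C, background-subtracted against the first reading, from 384-well plates inoculated at OD595 0.01 in TSB, LB Lennox or CY.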

[2] = test system: S. aureus Newman; assay: as above
How it was run: as §1

[3] = test system: S. aureus DSM 20231; assay: as above
How it was run: as §1

[4] = test system: S. pneumoniae D39V; assay: as above
How it was run: as §1

[5] = test system: B. subtilis 168; assay: Bliss interaction score (quartile over a dose matrix) (fitness difference); higher = more antagonism (negative = synergy)
How it was run: (§2)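 Growth was read as OD595 when cultures entered stationary phase, and each value was divided by the plate's robust no-drug mean and capped at 1. This normalised ratio is the fitness value, and fitness for each single drug came from the combination data. The Bliss score subtracts the expected fitness, taken as the product, from the observed fitness and is given as quartiles across technical, biological and donor/recipient replicates.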

[6] = test system: S. aureus Newman; assay: as above
How it was run: as §2

[7] = test system: S. aureus DSM 20231; assay: as above
How it was run: as §2

[8] = test system: S. pneumoniae D39V; assay: as above
How it was run: as §2
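Wherever Bliss interaction score (quartile over a dose matrix) is given: first quartile when negative (synergy) and third quartile when positive (antagonism).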
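Wherever fitness (endpoint OD595 vs no drug) is given: OD595 on entry to stationary phase over no-drug wells; at most 1.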

COc1c(N2C[C@@H]3CCCN[C@@H]3C2)c(F)cc2c(=O)c(C(=O)O)cn(C3CC3)c12 [Moxifloxacin] + CN(N=O)C(=O)N[C@@H](C=O)[C@@H](O)[C@H](O)[C@H](O)CO [Streptozotocin]
fitness
Conditions | partner 0.15 µg/mL | partner 0.3 µg/mL | partner 0.6 µg/mL | partner 1.2 µg/mL | partner 2.4 µg/mL | partner 4.8 µg/mL
[1], first compound 0.0312 µg/mL | 0.0402 | 0.04 | 0.0108 | – | – | –
[1], first compound 0.0625 µg/mL | 0.0394 | 0.0297 | 0.0273 | – | – | –
[1], first compound 0.125 µg/mL | 0.0412 | 0.0464 | 0.0221 | – | – | –
[2], first compound 0.0075 µg/mL | 0.69 | 0.635 | 0.392 | – | – | –
[2], first compound 0.015 µg/mL | 0.453 | 0.378 | 0.106 | – | – | –
[2], first compound 0.03 µg/mL | 0.0433 | 0.0331 | 0.0187 | – | – | –
[3], first compound 0.0075 µg/mL | 0.75 | 0.715 | 0.614 | – | – | –
[3], first compound 0.015 µg/mL | 0.691 | 0.681 | 0.59 | – | – | –
[3], first compound 0.03 µg/mL | 0.611 | 0.632 | 0.533 | – | – | –
[4], first compound 0.005 µg/mL | – | – | – | 0.94 | 0.951 | 0.943
[4], first compound 0.01 µg/mL | – | – | – | 0.951 | 0.95 | 0.928
[4], first compound 0.02 µg/mL | – | – | – | 0.919 | 0.875 | 0.895

fitness, one replicate
Conditions | partner 0.15 µg/mL | partner 0.3 µg/mL | partner 0.6 µg/mL | partner 1.2 µg/mL | partner 2.4 µg/mL | partner 4.8 µg/mL
[1], first compound 2 µg/mL | 0.0199 | 0.0131 | 0 | – | – | –
[1], first compound 4 µg/mL | 0.0208 | 0.0015 | 0.0018 | – | – | –
[1], first compound 8 µg/mL | 0.0288 | 0.0107 | 0.0248 | – | – | –
[3], first compound 0.06 µg/mL | 0.653 | 0.639 | 0.605 | – | – | –
[3], first compound 0.12 µg/mL | 0.453 | 0.448 | 0.391 | – | – | –
[4], first compound 0.0037 µg/mL | – | – | – | 0.978 | 0.879 | 0.844
[4], first compound 0.0075 µg/mL | – | – | – | 0.92 | 0.922 | 0.811
[4], first compound 0.015 µg/mL | – | – | – | 0.878 | 0.872 | 0.811

Conditions | Bliss interaction score
[5] | -0.0331
[6] | -0.14
[7] | 0.0189
[8] | 0.0634

CCC[C@@H]1C[C@@H](C(=O)N[C@@H]([C@H]2O[C@H](SC)[C@H](O)[C@@H](O)[C@H]2O)[C@H](C)Cl)N(C)C1 [Clindamycin] + O=C(O[C@@H]1Cc2c(O)cc(O)cc2O[C@@H]1c1cc(O)c(O)c(O)c1)c1cc(O)c(O)c(O)c1 [EGCG]
fitness, [1], one replicate
Conditions | first compound 0.0039 µg/mL | first compound 0.0078 µg/mL | first compound 0.0156 µg/mL
partner 6.25 µg/mL | 0.986 | 0.862 | 0.85
partner 12.5 µg/mL | 0.511 | 0.402 | 0.383
partner 25 µg/mL | 0.401 | 0.362 | 0.374

fitness
Conditions | partner 6.25 µg/mL | partner 12.5 µg/mL | partner 25 µg/mL | partner 50 µg/mL
[1], first compound 0.25 µg/mL | 0.356 | 0.337 | 0.119 | –
[2], first compound 0.0312 µg/mL | – | 0.603 | 0.587 | 0.598
[2], first compound 0.125 µg/mL | – | – | 0.0771 | 0.046
[3], first compound 0.0312 µg/mL | – | 0.485 | 0.49 | 0.416
[3], first compound 0.0625 µg/mL | – | – | 0.172 | 0.115
[3], first compound 0.125 µg/mL | – | 0.0823 | 0.0417 | 0.0383
[4], first compound 0.0125 µg/mL | – | 0.703 | 0.686 | 0.605
[4], first compound 0.015 µg/mL | – | 0.734 | 0.661 | 0.538
[4], first compound 0.025 µg/mL | – | 0.466 | 0.405 | 0.392
[4], first compound 0.03 µg/mL | – | 0.466 | 0.414 | 0.3
[4], first compound 0.05 µg/mL | – | 0.173 | 0.168 | 0.178
[4], first compound 0.06 µg/mL | – | 0.312 | 0.315 | 0.22

Conditions | Bliss interaction score
[5] | 0.136
[6] | -0.0691
[7] | 0.0371
[8] | -0.108

COc1c(N2C[C@@H]3CCCN[C@@H]3C2)c(F)cc2c(=O)c(C(=O)O)cn(C3CC3)c12 [Moxifloxacin] + C[n+]1ccc(-c2cc[n+](C)cc2)cc1 [Paraquat]
fitness
Conditions | partner 1.25 µg/mL | partner 1.5 µg/mL | partner 2.5 µg/mL | partner 3 µg/mL | partner 5 µg/mL | partner 6 µg/mL
[1], first compound 0.0312 µg/mL | 0.0599 | – | 0.0539 | – | 0.0449 | –
[1], first compound 0.0625 µg/mL | 0.044 | – | 0.0467 | – | 0.0504 | –
[1], first compound 0.125 µg/mL | 0.0395 | – | 0.0537 | – | 0.0512 | –
[1], first compound 2 µg/mL | 0.0316 | – | 0.0333 | – | 0.0436 | –
[1], first compound 4 µg/mL | 0.0442 | – | 0.039 | – | 0.0413 | –
[1], first compound 8 µg/mL | 0.0139 | – | 0.0174 | – | 0.0265 | –
[2], first compound 0.0075 µg/mL | 0.706 | – | 0.73 | – | 0.727 | –
[2], first compound 0.015 µg/mL | 0.583 | – | 0.565 | – | 0.554 | –
[2], first compound 0.03 µg/mL | 0.0423 | – | 0.0559 | – | 0.0929 | –
[3], first compound 0.0075 µg/mL | 0.818 | – | 0.831 | – | 0.824 | –
[3], first compound 0.015 µg/mL | 0.748 | – | 0.712 | – | 0.774 | –
[3], first compound 0.03 µg/mL | 0.647 | – | 0.632 | – | 0.634 | –
[4], first compound 0.005 µg/mL | – | 0.979 | – | 0.994 | – | 0.969
[4], first compound 0.01 µg/mL | – | 0.966 | – | 0.957 | – | 0.939
[4], first compound 0.02 µg/mL | – | 0.947 | – | 0.927 | – | 0.893

fitness, one replicate
Conditions | partner 1.25 µg/mL | partner 1.5 µg/mL | partner 2.5 µg/mL | partner 3 µg/mL | partner 5 µg/mL | partner 6 µg/mL
[3], first compound 0.06 µg/mL | 0.684 | – | 0.7 | – | 0.699 | –
[3], first compound 0.12 µg/mL | 0.456 | – | 0.456 | – | 0.451 | –
[4], first compound 0.0037 µg/mL | – | 0.906 | – | 0.857 | – | 0.896
[4], first compound 0.0075 µg/mL | – | 0.878 | – | 0.852 | – | 0.868
[4], first compound 0.015 µg/mL | – | 0.886 | – | 0.866 | – | 0.868

Conditions | Bliss interaction score
[5] | 0.0133
[6] | -0.0625
[7] | -0.0639
[8] | -0.0615

— the supplement of paper PMC10627819
